Laboratory results as given in US12662491B2 (Redona Therapeutics, Inc., priority 2020, dated 2026).

What follows are molecules tested against T1, Zcchc11 enzyme (Homo sapiens, UniProt Q5TAX3) (assay: TUTase assay (Zcchc11 assay, Lin28a-dependent polyuridylation of pre-let-7)). Conditions: Lin28a-dependent Zcchc11 (Z11) TUTase assay; read-out: Potency Lin28a-dep Z11 IC50.
T1 construct: made in house; host or cells: HEK293 cells (Zcchc11); E. coli Rosetta II (LIN28A)
T1 sequence (Q5TAX3 212-1420): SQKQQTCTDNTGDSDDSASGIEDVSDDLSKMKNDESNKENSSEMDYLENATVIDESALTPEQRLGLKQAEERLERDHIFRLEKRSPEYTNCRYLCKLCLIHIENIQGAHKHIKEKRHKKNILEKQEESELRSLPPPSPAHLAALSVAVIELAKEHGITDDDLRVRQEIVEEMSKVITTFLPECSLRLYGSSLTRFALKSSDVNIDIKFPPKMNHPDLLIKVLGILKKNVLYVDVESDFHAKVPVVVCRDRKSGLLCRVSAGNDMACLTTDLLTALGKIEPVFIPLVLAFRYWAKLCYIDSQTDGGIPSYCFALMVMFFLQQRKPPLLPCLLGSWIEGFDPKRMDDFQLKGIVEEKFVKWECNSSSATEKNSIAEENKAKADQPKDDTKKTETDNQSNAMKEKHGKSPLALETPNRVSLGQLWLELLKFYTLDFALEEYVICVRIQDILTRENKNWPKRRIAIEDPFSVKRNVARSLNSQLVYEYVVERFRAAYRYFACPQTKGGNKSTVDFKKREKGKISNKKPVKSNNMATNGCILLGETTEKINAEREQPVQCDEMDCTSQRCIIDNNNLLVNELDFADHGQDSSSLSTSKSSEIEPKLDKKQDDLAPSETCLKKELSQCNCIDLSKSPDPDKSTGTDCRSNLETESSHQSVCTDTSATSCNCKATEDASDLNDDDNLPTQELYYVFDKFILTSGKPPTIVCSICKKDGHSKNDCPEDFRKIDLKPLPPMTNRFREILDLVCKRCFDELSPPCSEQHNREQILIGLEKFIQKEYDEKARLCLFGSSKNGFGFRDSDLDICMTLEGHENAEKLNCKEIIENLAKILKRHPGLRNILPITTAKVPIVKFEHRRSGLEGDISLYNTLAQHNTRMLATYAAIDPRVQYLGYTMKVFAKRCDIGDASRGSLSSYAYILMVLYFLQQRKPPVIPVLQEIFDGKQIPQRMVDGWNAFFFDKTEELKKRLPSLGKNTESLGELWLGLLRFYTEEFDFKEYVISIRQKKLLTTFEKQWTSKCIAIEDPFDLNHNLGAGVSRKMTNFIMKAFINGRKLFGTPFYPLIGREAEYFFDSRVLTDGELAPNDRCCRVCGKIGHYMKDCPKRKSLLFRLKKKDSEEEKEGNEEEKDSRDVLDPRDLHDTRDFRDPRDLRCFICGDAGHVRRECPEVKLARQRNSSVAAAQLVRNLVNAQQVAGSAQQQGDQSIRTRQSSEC
Type: biochemical
Procedure, shortened: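 HEK293-expressed human Zcchc11 (residues 212-1420, 0.2 nM) with 10 nM LIN28A and 2 nM 5′-fluorescein pre-let-7, preincubated 30 min at room temperature, pH 7.3. Started with 5 uM UTP; poly(U) tails quenched by 3′-rhodamine A20 probe, read kinetically. IC50 from early-rate four-parameter fit; no-UTP wells define 0%.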
For CC(=O)NC1CCC(n2cc(C(=O)O)c(=O)c3cc(F)c(N4CCC[C@@H]4COc4ccccn4)cc32)CC1 (stereo partly drawn) [Example 358, 1-(4-acetamidocyclo-hexyl)-6-fluoro-4-oxo-7-[(2R)-2-[(pyridin-2-yloxy)methyl]pyrrolo-1-yl]-1,4-dihydroquinoline-3-carboxylic acid], the IC50 was 1000 to 10000 nM. With COC1CC(n2cc(C(=O)O)c(=O)c3cc(F)c(N4CCC[C@@H]4COc4ccccn4)cc32)C1 (stereo partly drawn) [Example 359, (R)-6-fluoro-1-(3-methoxycyclo-butyl)-4-oxo-7-(2-((pyridin-2-yloxy)methyl)pyrrolidin-1-yl)-1,4-dihydro-quinoline-3-carboxylic acid] the IC50 was 1000 to 10000 nM. Work on CS(=O)(=O)NC1CCC(n2cc(C(=O)O)c(=O)c3cc(F)c(N4CCC[C@@H]4COc4ccccn4)cc32)CC1 (stereo partly drawn) [Example 360, (R)-6-fluoro-1-(4-(methyl-sulfonamido)cyclo-hexyl)-4-oxo-7-(2-((pyridin-2-yloxy)methyl)pyrrolidin-1-yl)-1,4-dihydro-quinoline-3-carboxylic acid] yielded an IC50 of 1000 to 10000 nM. Molecule CC1(n2cc(C(=O)O)c(=O)c3cc(F)c(N4CCC[C@@H]4COc4ccccn4)cc32)CC1 [Example 361, (R)-6-fluoro-1-(1-methylcyclo-propyl)-4-oxo-7-(2-((pyridin-2-yloxy)methyl)pyrrolidin-1-yl)-1,4-dihydroquinoline-3-carboxylic acid] has an IC50 of no more than 1000 nM. Work on Cc1cccnc1OC[C@H]1CCCN1c1cc2c(cc1F)c(=O)c(C(=O)O)cn2C1CC(O)C1 (stereo partly drawn) [Example 362, (R)-6-fluoro-1-(3-hydroxycyclo-butyl)-7-(2-(((3-methylpyridin-2-yl)oxy)methyl)pyrrolidin-1-yl)-4-oxo-1,4-dihydroquinoline-3-carboxylic acid] yielded an IC50 of no more than 1000 nM. CC1(n2cc(C(=O)O)c(=O)c3cc(F)c(N4CCC[C@@H]4COc4ccccn4)cc32)CCC1 [Example 363, (R)-6-fluoro-1-(1-methylcyclo-butyl)-4-oxo-7-(2-((pyridin-2-yloxy)methyl)pyrrolidin-1-yl)-1,4-dihydro-quinoline-3-carboxylic acid] was tested, and the IC50 was 1000 to 10000 nM. With O=C(O)c1cn(-c2cnc(O)cn2)c2cc(N3CCC[C@@H]3COc3ncccc3Cl)c(Cl)cc2c1=O [Example 364, 6-Chloro-7-[(2R)-2-{[(3-chloropyridin-2-yl)oxy]methyl}pyrrolidin-1-yl]-1-(5-hydroxy-pyrazin-2-yl)-4-oxo-1,4-dihydroquinoline-3-carboxylic acid] the IC50 was no more than 1000 nM. Cc1cccnc1OC[C@H]1CCCN1c1cc2c(cc1Br)c(=O)c(C(=O)O)cn2C1(C)CC1 [Example 365, 6-Bromo-1-(1-methylcyclo-propyl)-7-[(2R)-2-{[(3-methyl-pyridin-2-yl)oxy]methyl}pyrrolidin-1-yl]-4-oxo-1,4-dihydroquinoline-3-carboxylic acid] gave an IC50 of 1000 to 10000 nM. For Cc1cccnc1OC[C@H]1CCCN1c1cc2c(cc1Cl)c(=O)c(C(=O)O)cn2C1CNC1 [Example 366, 1-(Azetidin-3-yl)-6-chloro-7-[(2R)-2-{[(3-methyl-pyridin-2-yl)oxy]methyl}pyrrolidin-1-yl]-4-oxo-1,4-dihydroquinoline-3-carboxylic acid], the IC50 was 1000 to 10000 nM. Work on O=C(O)c1cn(C2CCNC2)c2cc(N3CCC[C@@H]3COc3ncccc3Cl)c(Cl)cc2c1=O (stereo partly drawn) [Example 367, 6-chloro-7-[(2R)-2-{[(3-chloro-pyridin-2-yl)oxy)methyl}pyrrolidin-1-yl]-4-oxo-1-(pyrrolidin-3-yl)-1,4-dihydroquinoline-3-carboxylic acid] yielded an IC50 of 1000 to 10000 nM. O=C(O)c1cn(C2CCNCC2)c2cc(N3CCC[C@@H]3COc3ncccc3Cl)c(Cl)cc2c1=O [Example 368, 6-chloro-7-[(2R)-2-{[(3-chloropyridin-2-yl)oxy]methyl}pyrrolidin-1-yl]-4-oxo-1-(piperidin-4-yl)-1,4-dihydroquinoline-3-carboxylic acid] showed an IC50 of 1000 to 10000 nM. For O=C(O)c1cn(C2CC3(CNC3)C2)c2cc(N3CCC[C@@H]3COc3ncccc3Cl)c(Cl)cc2c1=O [Example 369, 1-{2-Azaspiro[3.3]heptan-6-yl}-6-chloro-7-[(2R)-2-{[(3-chloropyridin-2-yl)oxy]methyl}pyrrolidin-1-yl]-4-oxo-1,4-dihydroquinoline-3-carboxylic acid], the IC50 was 1000 to 10000 nM. CC(=O)Nc1ccc(-n2cc(C(=O)O)c(=O)c3cc(F)c(N4CCC[C@@H]4COc4ccccn4)cc32)cc1 [Example 370, (R)-1-(4-acetamidophenyl)-6-fluoro-4-oxo-7-(2-((pyridin-2-yloxy)methyl)pyrrolidin-1-yl)-1,4-dihydro-quinoline-3-carboxylic acid] showed an IC50 of no more than 1000 nM. With CS(=O)(=O)Nc1ccc(-n2cc(C(=O)O)c(=O)c3cc(F)c(N4CCC[C@@H]4COc4ccccn4)cc32)cc1 [Example 371, (R)-6-fluoro-1-(4-(methyl-sulfonamido)phenyl)-4-oxo-7-(2-((pyridin-2-yloxy)methyl)pyrrolidin-1-yl)-1,4-dihydro-quinoline-3-carboxylic acid] the IC50 was no more than 1000 nM. O=C(O)c1cn(-c2ccc(CO)cc2)c2cc(N3CCC[C@@H]3COc3ccccn3)c(F)cc2c1=O [Example 372, (R)-6-fluoro-1-(4-(hydroxymethyl)phenyl)-4-oxo-7-(2-((pyridin-2-yloxy)methyl)pyrrolidin-1-yl)-1,4-dihydroquinoline-3-carboxylic acid] gave an IC50 of no more than 1000 nM. For O=C(O)c1cn(-c2ccccc2F)c2cc(N3CCC[C@@H]3COc3ccccn3)c(F)cc2c1=O [Example 373, (R)-6-fluoro-1-(2-fluorophenyl)-4-oxo-7-(2-((pyridin-2-yloxy)methyl)pyrrolidin-1-yl)-1,4-dihydroquinoline-3-carboxylic acid], the IC50 was 1000 to 10000 nM. Work on O=C(O)c1cn(-c2ccc(CO)cc2F)c2cc(N3CCC[C@@H]3COc3ccccn3)c(F)cc2c1=O [Example 374, (R)-6-fluoro-1-(2-fluoro-4-(hydroxymethyl)phenyl)-4-oxo-7-(2-((pyridin-2-yloxy)methyl)pyrrolidin-1-yl)-1,4-dihydroquinoline-3-carboxylic acid] yielded an IC50 of no more than 1000 nM. For O=C(O)c1cn(-c2cccc(F)c2)c2cc(N3CCC[C@@H]3COc3ccccn3)c(F)cc2c1=O [Example 375, (R)-6-fluoro-1-(3-fluorophenyl)-4-oxo-7-(2-((pyridin-2-yloxy)methyl)pyrrolidin-1-yl)-1,4-dihydroquinoline-3-carboxylic acid], the IC50 was 1000 to 10000 nM. O=C(O)c1cn(-c2cccc(F)c2F)c2cc(N3CCC[C@@H]3COc3ccccn3)c(F)cc2c1=O [Example 376, (R)-1-(2,3-difluorophenyl)-6-fluoro-4-oxo-7-(2-((pyridin-2-yloxy)methyl)pyrrolidin-1-yl)-1,4-dihydroquinoline-3-carboxylic acid] gave an IC50 of 1000 to 10000 nM. For O=C(O)c1cn(-c2ccc(Cl)cc2)c2cc(N3CCC[C@@H]3COc3ccccn3)c(F)cc2c1=O [Example 377, (R)-1-(4-chlorophenyl)-6-fluoro-4-oxo-7-(2-((pyridin-2-yloxy)methyl)pyrrolidin-1-yl)-1,4-dihydroquinoline-3-carboxylic acid], the IC50 was no more than 1000 nM. Work on O=C(O)c1cn(-c2ccc(F)cc2)c2cc(N3CCC[C@@H]3COc3ccccn3)c(F)cc2c1=O [Example 378, (R)-6-fluoro-1-(4-fluorophenyl)-4-oxo-7-(2-((pyridin-2-yloxy)methyl)pyrrolidin-1-yl)-1,4-dihydroquinoline-3-carboxylic acid] yielded an IC50 of no more than 1000 nM. With O=C(O)c1cn(-c2ccc(F)c(F)c2)c2cc(N3CCC[C@@H]3COc3ccccn3)c(F)cc2c1=O [Example 379, (R)-1-(3,4-difluorophenyl)-6-fluoro-4-oxo-7-(2-((pyridin-2-yloxy)methyl)pyrrolidin-1-yl)-1,4-dihydroquinoline-3-carboxylic acid] the IC50 was 1000 to 10000 nM. In the case of O=C(O)c1cn(-c2ccc(F)cn2)c2cc(N3CCC[C@@H]3COc3ccccn3)c(F)cc2c1=O [Example 380, (R)-6-fluoro-1-(5-fluoropyridin-2-yl)-4-oxo-7-(2-((pyridin-2-yloxy)methyl)pyrrolidin-1-yl)-1,4-dihydroquinoline-3-carboxylic acid], the IC50 is reported as 1000 to 10000 nM.
